Values after ≈ are worked out from the molar mass of the structure shown.
Tests used:
Experiment in all cases: MIC, microdilution broth method (NCCLS)
Format in all cases: cell-based
Conditions in all cases: 35° C., 16-20 hours
E. faecalis ATCC29212 = tested on: E. faecalis ATCC29212
In short: (§1)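 Growth in each compound well, compared with drug-free control wells after 16-20 h at 35° C, defines the MIC. Wells hold two-fold dilutions in cation-adjusted Mueller-Hinton broth with roughly 5×10^4 CFU/well.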

H. influenzae ATCC49247 = tested on: H. influenzae ATCC49247
In short: as §1

S. aureus ATCC29213 = tested on: S. aureus ATCC29213
In short: as §1

S. pneumoniae ATCC49619 = tested on: S. pneumoniae ATCC49619
In short: as §1

Row | Compound | MIC (C: E. faecalis ATCC29212) (E. faecalis ATCC29212) | MIC (E: H. influenzae ATCC49247) (H. influenzae ATCC49247) | MIC (B: S. aureus ATCC29213) (S. aureus ATCC29213) | MIC (D: S. pneumoniae ATCC49619) (S. pneumoniae ATCC49619)
1 | CCC1OC(=O)C(C)C(=O)C(C)C(OC2OC(C)CC(N(C)C)C2O)C(C)(OC(=O)OCC=Cc2cnc(-c3ccccc3)nc2)CC(C)C(=O)C(C)C2NC(=O)OC12C (stereo not drawn) [Compound 72] | 0.06 µg/mL (≈ 0.0717 µM) | 2 µg/mL (≈ 2.39 µM) | 0.25 µg/mL (≈ 0.299 µM) | 0.03 µg/mL (≈ 0.0358 µM)
2 | CCC1OC(=O)C(C)C(=O)C(C)C(OC2OC(C)CC(N(C)C)C2O)C(C)(OC(=O)OCC(F)=Cc2ccc(-c3ncccn3)cc2)CC(C)C(=O)C(C)C2NC(=O)OC12C (stereo not drawn) [Compound 160] | 0.06 µg/mL (≈ 0.0702 µM) | 1 µg/mL (≈ 1.17 µM) | 0.12 µg/mL (≈ 0.14 µM) | 0.03 µg/mL (≈ 0.0351 µM)
3 | CCC1OC(=O)C(C)C(=O)C(C)C(OC2OC(C)CC(N(C)C)C2O)C(C)(OC(=O)OCC=Cc2cn(-c3cnccn3)cn2)CC(C)C(=O)C(C)C2NC(=O)OC12C (stereo not drawn) [Compound 35] | 0.12 µg/mL (≈ 0.145 µM) | 1 µg/mL (≈ 1.21 µM) | 0.25 µg/mL (≈ 0.302 µM) | 0.03 µg/mL (≈ 0.0363 µM)
4 | CC[C@H]1OC(=O)[C@@](C)(F)C(=O)[C@H](C)[C@@H](O[C@@H]2O[C@H](C)C[C@H](N(C)C)[C@H]2O)[C@](C)(OC(=O)NOCC#Cc2cnc3ccccc3c2)C[C@@H](C)C(=O)[C@H](C)[C@H]2NC(=O)O[C@@]21C [Compound 623] | 0.12 µg/mL (≈ 0.143 µM) | 4 µg/mL (≈ 4.76 µM) | 0.25 µg/mL (≈ 0.297 µM) | 0.03 µg/mL (≈ 0.0357 µM)
5 | CC[C@H]1OC(=O)[C@H](C)C(=O)[C@H](C)[C@@H](O[C@@H]2O[C@H](C)C[C@H](N(C)C)[C@H]2O)[C@](C)(OC(=O)SC/C=C/c2cnc3ccccc3c2)C[C@@H](C)C(=O)[C@H](C)[C@H]2NC(=O)O[C@@]21C [Compound 837] | 0.25 µg/mL (≈ 0.303 µM) | 8 µg/mL (≈ 9.68 µM) | 2 µg/mL (≈ 2.42 µM) | 0.12 µg/mL (≈ 0.145 µM)
6 | CC[C@H]1OC(=O)[C@H](C)C(=O)[C@H](C)[C@@H](O[C@@H]2O[C@H](C)C[C@H](N(C)C)[C@H]2O)[C@](C)(OC(=O)SCc2ccccc2)C[C@@H](C)C(=O)[C@H](C)[C@H]2NC(=O)O[C@@]21C [Compound 831] | 0.25 µg/mL (≈ 0.334 µM) | 8 µg/mL (≈ 10.7 µM) | 2 µg/mL (≈ 2.67 µM) | 0.06 µg/mL (≈ 0.0801 µM)
7 | CC[C@H]1OC(=O)[C@H](C)C(=O)[C@H](C)[C@@H](O[C@@H]2O[C@H](C)C[C@H](N(C)C)[C@H]2O)[C@](C)(OC(=O)N(C)NCc2ccc(-c3ccccn3)cc2)C[C@@H](C)C(=O)[C@H](C)[C@H]2NC(=O)O[C@@]21C [Compound 818] | 0.25 µg/mL (≈ 0.298 µM) | 8 µg/mL (≈ 9.55 µM) | 4 µg/mL (≈ 4.77 µM) | 0.06 µg/mL (≈ 0.0716 µM)
8 | CC[C@H]1OC(=O)[C@H](C)C(=O)[C@H](C)[C@@H](O[C@@H]2O[C@H](C)C[C@H](N(C)C)[C@H]2O)[C@](C)(OC(=O)SC/C=C/c2ccc(-c3ncccn3)cc2)C[C@@H](C)C(=O)[C@H](C)[C@H]2NC(=O)O[C@@]21C [Compound 833] | 0.25 µg/mL (≈ 0.293 µM) | 16 µg/mL (≈ 18.8 µM) | 0.5 µg/mL (≈ 0.586 µM) | 0.06 µg/mL (≈ 0.0703 µM)
9 | CCC1OC(=O)C(C)C(=O)C(C)C(OC2OC(C)CC(N(C)C)C2O)C(C)(OC(=O)OCC=C(F)c2ccc(-c3ncccn3)cc2)CC(C)C(=O)C(C)C2NC(=O)OC12C (stereo not drawn) [Compound 224] | 0.06 µg/mL (≈ 0.0702 µM) | 2 µg/mL (≈ 2.34 µM) | 0.12 µg/mL (≈ 0.14 µM) | ≦0.015 μg/mL
10 | CC[C@H]1OC(=O)[C@H](C)C(=O)[C@H](C)[C@@H](O[C@@H]2O[C@H](C)C[C@H](N(C)C)[C@H]2O)[C@](C)(OC(=O)NNC(=O)N(C)c2ccccc2)C[C@@H](C)C(=O)[C@H](C)[C@H]2NC(=O)O[C@@]21C [Compound 815] | 1 µg/mL (≈ 1.27 µM) | 16 µg/mL (≈ 20.3 µM) | 4 µg/mL (≈ 5.06 µM) | 0.25 µg/mL (≈ 0.316 µM)
11 | CC[C@H]1OC(=O)[C@H](C)C(=O)[C@H](C)[C@@H](O[C@@H]2O[C@H](C)C[C@H](N(C)C)[C@H]2O)[C@](C)(OC(=O)NN=C/C=C/c2ccc(-c3ncccn3)cc2)C[C@@H](C)C(=O)[C@H](C)[C@H]2NC(=O)O[C@@]21C [Compound 827] | 1 µg/mL (≈ 1.18 µM) | 8 µg/mL (≈ 9.42 µM) | 1 µg/mL (≈ 1.18 µM) | 0.12 µg/mL (≈ 0.141 µM)
12 | CC[C@H]1OC(=O)[C@H](C)C(=O)[C@H](C)[C@@H](O[C@@H]2O[C@H](C)C[C@H](N(C)C)[C@H]2O)[C@](C)(OC(=O)SCc2ccc(-c3ccccn3)s2)C[C@@H](C)C(=O)[C@H](C)[C@H]2NC(=O)O[C@@]21C [Compound 839] | 0.12 µg/mL (≈ 0.144 µM) | 2 µg/mL (≈ 2.4 µM) | 1 µg/mL (≈ 1.2 µM) | 0.06 µg/mL (≈ 0.0721 µM)
13 | CCc1cnc(-c2ccc(C=CCOC(=O)OC3(C)CC(C)C(=O)C(C)C4NC(=O)OC4(C)C(CC)OC(=O)C(C)C(=O)C(C)C3OC3OC(C)CC(N(C)C)C3O)cc2)nc1 (stereo not drawn) [Compound 58] | 0.5 µg/mL (≈ 0.578 µM) | 4 µg/mL (≈ 4.62 µM) | 0.5 µg/mL (≈ 0.578 µM) | 0.06 µg/mL (≈ 0.0694 µM)
14 | CC[C@H]1OC(=O)[C@H](C)C(=O)[C@H](C)[C@@H](O[C@@H]2O[C@H](C)C[C@H](N(C)C)[C@H]2O)[C@](C)(OC(=O)NN=Cc2ccc(-c3ncccn3)cc2)C[C@@H](C)C(=O)[C@H](C)[C@H]2NC(=O)O[C@@]21C [Compound 825] | 0.5 µg/mL (≈ 0.608 µM) | 16 µg/mL (≈ 19.4 µM) | 4 µg/mL (≈ 4.86 µM) | 0.12 µg/mL (≈ 0.146 µM)
15 | CCC1OC(=O)C(C)C(=O)C(C)C(OC2OC(C)CC(N(C)C)C2O)C(C)(OC(=O)OCC=Cc2ccc(-n3cccn3)cc2F)CC(C)C(=O)C(C)C2NC(=O)OC12C (stereo not drawn) [Compound 30] | 0.06 µg/mL (≈ 0.0712 µM) | 1 µg/mL (≈ 1.19 µM) | 0.12 µg/mL (≈ 0.142 µM) | ≦0.015 μg/mL
16 | CCC1OC(=O)C(C)C(=O)C(C)C(OC2OC(C)CC(N(C)C)C2O)C(C)(OC(=O)OCCCCc2ccc(-c3ncccn3)cc2)CC(C)C(=O)C(C)C2NC(=O)OC12C (stereo not drawn) [Compound 286] | 0.25 µg/mL (≈ 0.293 µM) | 4 µg/mL (≈ 4.69 µM) | 0.25 µg/mL (≈ 0.293 µM) | 0.06 µg/mL (≈ 0.0703 µM)
17 | CC[C@H]1OC(=O)[C@H](C)C(=O)[C@H](C)[C@@H](O[C@@H]2O[C@H](C)C[C@H](N(C)C)[C@H]2O)[C@](C)(OC(=O)NOCC#Cc2cnc3ccccc3c2)C[C@@H](C)C(=O)[C@H](C)[C@H]2NC(=O)O[C@@]21C [Compound 618] | 0.06 µg/mL (≈ 0.0729 µM) | 1 µg/mL (≈ 1.22 µM) | 0.25 µg/mL (≈ 0.304 µM) | 0.03 µg/mL (≈ 0.0365 µM)
18 | C=CCSC(=O)O[C@]1(C)C[C@@H](C)C(=O)[C@H](C)[C@H]2NC(=O)O[C@]2(C)[C@@H](CC)OC(=O)[C@H](C)C(=O)[C@H](C)[C@H]1O[C@@H]1O[C@H](C)C[C@H](N(C)C)[C@H]1O [Compound 832] | 0.5 µg/mL (≈ 0.715 µM) | 8 µg/mL (≈ 11.4 µM) | 4 µg/mL (≈ 5.72 µM) | 0.25 µg/mL (≈ 0.358 µM)
19 | CC[C@H]1OC(=O)[C@H](C)C(=O)[C@H](C)[C@@H](O[C@@H]2O[C@H](C)C[C@H](N(C)C)[C@H]2O)[C@](C)(OC(=O)NN2CCCCC2)C[C@@H](C)C(=O)[C@H](C)[C@H]2NC(=O)O[C@@]21C [Compound 816] | 1 µg/mL (≈ 1.38 µM) | 16 µg/mL (≈ 22.1 µM) | 16 µg/mL (≈ 22.1 µM) | 0.5 µg/mL (≈ 0.69 µM)
20 | CC[C@H]1OC(=O)[C@H](C)C(=O)[C@H](C)[C@@H](O[C@@H]2O[C@H](C)C[C@H](N(C)C)[C@H]2O)[C@](C)(OC(=O)n2ccc(C(=N)Cc3ccccc3)c2)C[C@@H](C)C(=O)[C@H](C)[C@H]2NC(=O)O[C@@]21C [Compound 845] | >16 µg/mL | >16 µg/mL | >16 µg/mL | 4 µg/mL (≈ 4.94 µM)
21 | CC[C@H]1OC(=O)[C@H](C)C(=O)[C@H](C)[C@@H](O[C@@H]2O[C@H](C)C[C@H](N(C)C)[C@H]2O)[C@](C)(OC(=O)SCc2ccc(-c3ncccn3)cc2)C[C@@H](C)C(=O)[C@H](C)[C@H]2NC(=O)O[C@@]21C [Compound 834] | 0.12 µg/mL (≈ 0.145 µM) | 8 µg/mL (≈ 9.67 µM) | 0.5 µg/mL (≈ 0.605 µM) | <0.015 µg/mL
22 | CCC1OC(=O)C(C)C(=O)C(C)C(OC2OC(C)CC(N(C)C)C2O)C(C)(OC(=O)n2ccc(C(=N)CCCc3ccccc3)c2)CC(C)C(=O)C(C)C2NC(=O)OC12C (stereo not drawn) [Compound 846] | 1 µg/mL (≈ 1.19 µM) | 2 µg/mL (≈ 2.39 µM) | 8 µg/mL (≈ 9.56 µM) | 0.25 µg/mL (≈ 0.299 µM)
23 | CC[C@H]1OC(=O)[C@H](C)C(=O)[C@H](C)[C@@H](O[C@@H]2O[C@H](C)C[C@H](N(C)C)[C@H]2O)[C@](C)(OC(=O)NNS(=O)(=O)c2ccc(C)cc2)C[C@@H](C)C(=O)[C@H](C)[C@H]2NC(=O)O[C@@]21C [Compound 809] | 0.5 µg/mL (≈ 0.617 µM) | 2 µg/mL (≈ 2.47 µM) | 1 µg/mL (≈ 1.23 µM) | 0.03 µg/mL (≈ 0.037 µM)
24 | CC[C@H]1OC(=O)[C@H](C)C(=O)[C@H](C)[C@@H](O[C@@H]2O[C@H](C)C[C@H](N(C)C)[C@H]2O)[C@](C)(OC(=O)NNC(=O)c2ccccc2)C[C@@H](C)C(=O)[C@H](C)[C@H]2NC(=O)O[C@@]21C [Compound 813] | 1 µg/mL (≈ 1.31 µM) | 16 µg/mL (≈ 21 µM) | 16 µg/mL (≈ 21 µM) | 0.25 µg/mL (≈ 0.329 µM)
